Where two headings read alike, the source gives them in different places.
Assays:
[1] = Pharmacokinetic study in mice; type: in vivo, male CD1 mice; parameters: AUClast/D: unit not given here; details: for half-life / bioavailability: male, CD1, mouse
[2] = system: P. aeruginosa PA01; assay: Antibacterial activity (MIC, broth dilution); type: cell-based; details: CLSI
Procedure: (§1) Determination of the Minimal Inhibitory Concentrations (MIC) by dilution was carried out by broth dilution according to CLSI standards.

[3] = system: S. aureus HFH-30123 (MRSA); assay: Antibacterial activity (MIC, broth dilution); type: cell-based; details: CLSI
Procedure: as §1

[4] = system: P. aeruginosa X13273; assay: Antibacterial activity (MIC, broth dilution); type: cell-based; details: CLSI, in µg/mL
Procedure: as §1

[5] = system: E. cloacae ATCC 13047; assay: Antibacterial activity (MIC, broth dilution); type: cell-based; details: CLSI
Procedure: as §1

[6] = system: K. pneumoniae NR-15410 (KPC); assay: Antibacterial activity (MIC, broth dilution); type: cell-based; details: CLSI
Procedure: as §1

[7] = system: E. aerogenes ATCC 13048; assay: Antibacterial activity (MIC, broth dilution); type: cell-based; details: CLSI
Procedure: as §1

[8] = system: A. baumanii ATCC 19606; assay: Antibacterial activity (MIC, broth dilution); type: cell-based, Acinetobacter baumanii; details: CLSI, in µg/mL
Summary of the method: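 MIC determined by broth dilution following CLSI standards, using A. baumanii ATCC 19606.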

[9] = system: protein synthesis in E. faecalis EF1509; assay: Macromolecular synthesis assay: protein synthesis; type: cell-based; details: Enterococcus faecalis; E. faecalis EF1509, [3H]Leucine incorporation; read-out: IC50 inhibition of protein synthesis
Procedure: (§2) The effect of compounds on the macromolecular synthetic pathways of E. faecalis EF1509 were measured as follows: Cells were grown at 35°C overnight on Tryptic Soy Agar Broth (Remel, Lenexa, KS), and growth from the plate was used to inoculate 15 ml of Mueller Hinton Broth. The culture was grown to early exponential growth phase (OD600 = 0.2 to 0.3) while incubating in a shaker at 35°C and 150 rpm. For each macromolecular assay, the test agents were added at either 0, 0.25, 0.5, 1, 2, or 4, -fold their respective MIC values for E. faecalis EF1509.
For DNA and protein synthesis, 100 μl of cell culture reaching early exponential phase was added to triplicate wells containing various concentrations of test compound or control antibiotics (2.5 μl) at 40X the final concentration in 100% DMSO (0.1% methanol in water for Rifampicin). A 2.5% DMSO treated culture served as the “no drug” control for all experiments. Cells were added in 1.25X strength MHB to account for the volume of drug added to each reaction, or in M9 minimal medium for protein synthesis reactions. […] After washing five times with 200 μl per well of cold 5% TCA, the filters were allowed to dry, and then counted using a Packard Top Count microplate scintillation counter.

[10] = Lipid II binding by Surface Plasmon Resonance; details: SPR, immobilized 3-Lipid II, 25°C
Summary of the method: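 Farnesyl (3-isoprene) Lipid II amine-coupled (50 RUs) on CM5 chips. Compounds injected at 10 μM, 30 μl/min, 25°C, in 10 mM HEPES, 150 mM NaCl, 0.05% P20, pH 7.4 (± 3 mM EDTA), 10% DMSO. Signals corrected against control flow-cell; kinetics fitted from binding isotherms.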

[11] = system: lipid synthesis in E. faecalis EF1509; assay: Macromolecular synthesis assay: lipid synthesis; type: cell-based; details: Enterococcus faecalis; E. faecalis EF1509, [3H] glycerol incorporation; read-out: IC50 inhibition of lipid synthesis
Procedure: as §2
For lipid synthesis, bacterial cells were grown to early exponential growth phase in MHB and 100 μl was added to 1.5 ml Eppendorf tubes (in triplicate) containing various concentrations of test compound or control antibiotics as described above. Following a 5 min incubation at room temp., [^3H] glycerol was added at 0.5 μCi per reaction. Reactions were allowed to proceed at room temperature for 40 min and then stopped through the addition of 375 μl of chloroform/methanol (1:2) followed by vortexing for 20 sec after. Chloroform (125 μl) was then added to each reaction and vortexed, followed by the addition of 125 μl dH2O and vortexing. […] Samples were then counted via liquid scintillation counting. […]

[12] = PO 5 mg/kg, male CD1 mice, 5 mg/kg
[13] = mouse, plasma, IV 2.5 mg/kg, male CD1 mice
[14] = mouse, plasma, PO 5 mg/kg, male CD1 mice

SMILES | Antibacterial activity (MIC) P. aeruginosa PA01 [2] [µg/mL] | Antibacterial activity (MIC) S. aureus HFH-30123 (MRSA) [3] [µg/mL] | Antibacterial activity (MIC) P. aeruginosa X13273 [4] | Antibacterial activity (MIC) E. cloacae ATCC 13047 [5] [µg/mL] | Antibacterial activity (MIC) K. pneumoniae NR-15410 (KPC) [6] [µg/mL] | Antibacterial activity (MIC) E. aerogenes ATCC 13048 [7] [µg/mL] | Antibacterial activity (MIC) A. baumanii ATCC 19606 [8] | IC50 [9] [µg/mL] | Kd [10] [nM] | IC50 [11] [µg/mL] | other results
CN(C)c1ccc(/C=C/c2cc(-c3ccc(Br)cc3)cc(-c3ccc(Br)cc3)[o+]2)cc1 [6jc48-1] | ≥ 64 | 32 | >=64 | ≥ 64 | ≥ 64 | ≥ 64 | >=64 | 50.4 | 150 ± 30 | 7.8 | AUClast/D ([1]; IV […], male CD1 mice): 536±47; AUCExtrap ([1]; PO 5 mg/kg, male CD1 mice): 48.6%; AUClast/D ([1]; PO 5 mg/kg, male CD1 mice): 9.4; Vss_obs ([1]; PO 5 mg/kg, male CD1 mice): 1.75 L/kg; Finf (bioavailability) [1, 12]: 2.54%; T1/2 [1, 12]: 2.78 h; half-life ([1]; plasma, iv, […], male CD1 mice): > 13 h; half-life ([1]; plasma, po, 5 mg/kg, PO 5 mg/kg, male CD1 mice): ~3 h; bioavailability ([1]; plasma, po, 5 mg/kg, PO 5 mg/kg, male CD1 mice, read-out: Finf (bioavailability)): ~2.5%; bioavailability ([1]; plasma, po, 5 mg/kg, PO 5 mg/kg, male CD1 mice, read-out: Flast (bioavailability)): 1.9%; AUC(0-inf) [1, 13]: 1770 ± 120 ng·h/mL; AUC(0-t) [1, 13]: 1340 ± 117 ng·h/mL; Cmax [1, 13]: 1040 ± 323 ng/mL; MRT [1, 13]: 7.29 ± 0.27 h; clearance ([1]; mouse, plasma, IV 2.5 mg/kg, male CD1 mice, read-out: Cl_obs): 23.6 ± 1.7 mL/min/kg; AUC(0-inf) [1, 14]: 90 ng·h/mL; AUC(0-t) [1, 14]: 46.9 ng·h/mL; Cmax [1, 14]: 19.1 ng/mL
CN1/C(=C/C=C/c2cc(-c3ccccc3)cc(-c3ccccc3)[o+]2)C(C)(C)c2ccccc21 [BAS-00127538, (1-Methyl-2,4-diphenyl-6-((1E,3E)-3-(1,3,3-trimethylindolin-2-ylidene)prop-1-en-1-yl)pyryl-1-ium) tetrafluoroborate, reference compound] | 64 | 0.5 | >=64 | 32 | 8 | 16 | 4 | 1.6 | 1810 ± 300 | 2.3 | Detection in plasma upon oral administration ([1]; oral administration (not shown)): could not be detected

Reference: PMC5077133, “Towards Development of Small Molecule Lipid II Inhibitors as Novel Antibiotics” (PLoS ONE, 2016)
